According to US20230105412A1, “5-HT3 RECEPTOR MODULATOR, THE CRYSTALLINE FORM, METHODS OF MAKING, AND USE THEREOF” (CHENGDU SCIMOUNT PHARMATECH CO., LTD., priority 2021, published 2023):
In brackets after ≈: the same amount, converted by molar mass.

Legend:
Assay type in all cases: physicochemical
[1] = Gravimetric water solubility by TGA; conditions: deionized water, ambient, TGA gravimetric or visual dissolution, XRPD Form A
Procedure: The water solubility of select salts afforded from the 70 mg scale experiments was estimated using the following gravimetric method. Approximately 20 mg of each confirmed salt was weighed into a 2 mL HPLC vial. 50 μL increments of deionized H2O were then added to each vial along with a small magnetic stir bar. If dissolution was observed, the samples were stored in a hood overnight and examined the next day for precipitation. Samples affording slurries after a maximum of 250 μl of water were left stirring at ambient conditions overnight to equilibrate. These samples were then centrifuge filtered, and 50 μL of each saturated solution was aliquoted into tared TGA pans. On the TGA, each sample was heated and held at elevated temperature until all solvent was dried off. Resulting dry weight and aliquoted volume for each saturated solution was then utilized in estimating solubility. Refer to Table 3 for results of this study.

[2] = Aqueous solubility study (water slurry, HPLC, pH, XRPD); conditions: for pH: pH of supernatant of overnight water slurry; for XRPD (Form) after water slurry: solids after overnight room temperature water slurry, initial Form A
Procedure: Approximately 20 mg of the free form, mesylate, hydrochloride, succinate, glutamate, naphthoate and phosphate salts of formula (I) were weighed to individual HPLC vials equipped with a magnetic stir bar and 0.05 mL increments of deionized water added. If dissolution was observed, the approximate solubility was recorded. If no dissolution had occurred, the slurries were stirred overnight at ambient temperature. The supernatant from each slurry was obtained using centrifuge filters. Each solution was tested for pH and by HPLG versus a calibration curve (FIG. 6) to determine the equilibrium solubility. Solids obtained from the filtration were analyzed by XRPD to confirm the crystalline form (Table 4).

[3] = Stability at elevated temperature (60° C., 7 days); conditions: for XRPD (Form) after elevated temperature: 60° C., 7 days, uncovered, ambient pressure, initial Form A
Procedure: Approximately 10 mg of the free form, mesylate, hydrochloride, succinate, glutamate, naphthoate and phosphate salts of formula (I) were weighed to individual 4 mL vials and stored uncovered in an oven at 60° C. and ambient pressure. After seven days of exposure, the solids were analyzed by XRPD to check for form conversion and ^1H-NMR for signs of degradation (Table 5).

[4] = Organic slurry experiments (7 days, THF or IPA); conditions: initial Form A
Procedure: Approximately 30 mg of the free form, mesylate, hydrochloride, succinate, glutamate, naphthoate and phosphate salts of formula (I) were weighed to individual HPLG vials equipped with a magnetic stir bar. Either THF or IPA was added to obtain a free flowing slurry. After seven days of ambient equilibration, solid from each slurry was obtained using centrifuge filtration with 0.45 μm nylon centrifuge filters, and dried at ambient temperature and ˜30 in Hg. After drying overnight, each was analyzed by XRPD to check for form conversion and ^1H-NMR for signs of degradation (Table 6).

[5] = Gravimetric moisture sorption analysis; conditions: for water adsorbed / hygroscopicity / behaviour at high relative humidity: Form A; for hygroscopicity: gravimetric moisture sorption; for XRPD of dried material following moisture sorption program: initial Form A; for behaviour at high relative humidity: above 80% RH (80% RH to 90% RH)
Procedure: The stability of each salt was assessed via room temperature slurries in organic solvent and water, storage at elevated temperature (60° C.), and exposure to elevated relative humidity by gravimetric moisture sorption. From the water slurries, the solubility of each salt was determined at ambient conditions.

[6] = Relative humidity study (95% RH); conditions: five hours, Form A lot HAL-G-29(2)
Procedure: Approximately 30 mg of Form A mono-glutamate salt [lot HAL-G-29(2)] was stored uncovered in a small glass container in a desiccator containing an aqueous saturated solution of Na2HPO4.12H2O to achieve a relative humidity of 95%. After five hours of exposure the solid had deliquesced and the sample was exposed to the lab environment (20% RH) overnight. The resulting dried solid was characterized by XRPD, DSC, and TGA.
As presented above, Form B was obtained following moisture sorption analysis of Form A and subsequent drying. In an effort to generate additional Form B for further characterization, a brief humidity study was performed as described below: approximately 30 mg of Form A mono-glutamate salt [lot HAL-G-29(2)] was stored uncovered in a small glass container in a desiccator containing an aqueous saturated solution of Na2HPO4.12H2O to achieve a relative humidity of 95%.

SMILES | Estimated Water Solubility [1] | XRPD (Form) after elevated temperature [3] | XRPD (Form) 7 Days ([4]; ambient slurry in IPA) | hygroscopicity [5] | XRPD of dried material following moisture sorption program [5] | further results
O=C(O)c1ccc2ccccc2c1O [1-hydroxy-2-napthoic acid] | 4700 µg/mL | Form B | Form B | moderately hygroscopic | Form B | Aqueous Solubility ([2]; deionized water, ambient temperature, overnight slurry, HPLC or visual dissolution, initial XRPD Form A): 2300 µg/mL; pH [2]: 6.2; XRPD (Form) after water slurry [2]: Form C; water adsorbed ([5]; 60% RH): 1.5 wt %; water adsorbed ([5]; 90% RH): 2.5 wt %; water content during desorption ([5]; curve stabilized from 75%-55% RH): approximately 2.0 wt %
O=C1CCC(C(=O)O)N1 (centres unmarked) [2-pyrrolidine-5-carboxylic acid] | – | no signs of conversion | no signs of conversion | relatively non-hygroscopic | Form B | 1H-NMR, signs of degradation [3]: No; behaviour at high relative humidity ([5]; listed as glutamate): deliquesced; behaviour at high relative humidity ([5]; listed as mono-glutamate salt): deliquescence; behaviour at 95% RH [6]: deliquesced
O=C1c2cccc3[nH]nc(c23)CCN1[C@@H]1CN2CCC1CC2 [Free Form, (S)-7-(quinuclidin-3-yl)-8,9-dihydro-2H-azepino[5,4,3-cd]indazol-6(7H)-one] | – | no signs of form conversion | – | non hygroscopic | form conversion had not occurred | solubility ([1]; thermodynamic from solid, read-out: Estimated Water Solubility): < 2500 µg/mL; pH [2]: 9.3; XRPD (Form) after water slurry [2]: no change in crystalline form; solubility ([2]; thermodynamic from solid, deionized water, ambient temperature, overnight slurry, HPLC or visual dissolution, initial XRPD Form A): 2000 µg/mL (≈ 6.75 mM); 1H-NMR, signs of degradation [3]: No; water adsorbed ([5]; throughout the humidity program): less than 0.2 wt %
Cl [Hydrochloric acid] | – | no signs of conversion | no signs of conversion | – | – | –
O=C(O)C[C@H](O)C(=O)O [L-Malic acid] | ≥80000 µg/mL | – | – | – | – | Estimated Water Solubility ([1]; listed as malate salt): 80000 µg/mL
CS(=O)(=O)O [Methanesulfonic acid] | – | no signs of conversion | – | moderately hygroscopic | no form conversion had occurred | XRPD (Form) 7 Days ([4]; ambient slurry in THF): no signs of conversion; water adsorbed ([5]; 80% RH): 4.6 wt %; water adsorbed ([5]; 90% RH): 8.8 wt %
O=P(O)(O)O [Phosphoric acid] | – | no signs of conversion | no signs of conversion | – | – | –
O=C(O)CCC(=O)O [Succinic acid] | – | no signs of conversion | no signs of conversion | – | – | –
Cc1ccc(S(=O)(=O)O)cc1 [p-toluenesulfonic acid] | 17400 µg/mL | – | – | – | – | Estimated Water Solubility ([1]; listed as tosylate salt): 20300 µg/mL
